Results reported in PubChem BioAssay AID248 (DTP/NCI, 2004).
Toxic doses and inconclusive results are not listed.

Test system: L1210 leukemia ip in BDF1 mice, survival T/C
Experiment: NCI In Vivo Anticancer Drug Screen. Data for tumor model L1210 Leukemia (intraperitoneal) in B6D2F1 (BDF1) mice
Settings: endpoint: mean survival time, higher = longer survival
How it was run: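 Value reflects the ratio of survival in compound-treated mice to survival in vehicle-treated controls, with both groups carrying the same transplanted tumor.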

[1] = dose: 100.0 mg/kg/injection, schedule: Q01DX001 (ip), vehicle: other
[2] = dose: 100.0 mg/kg/injection, schedule: Q04DX003 (ip), vehicle: other
[3] = dose: 200.0 mg/kg/injection, schedule: Q01DX001 (ip), vehicle: other
[4] = dose: 200.0 mg/kg/injection, schedule: Q04DX003 (ip), vehicle: other
[5] = dose: 400.0 mg/kg/injection, schedule: Q01DX001 (ip), vehicle: other
[6] = dose: 400.0 mg/kg/injection, schedule: Q04DX003 (ip), vehicle: other
[7] = dose: 100.0 mg/kg/injection, schedule: Q04DX003 (ip), vehicle: saline with Tween-80
[8] = dose: 200.0 mg/kg/injection, schedule: Q04DX003 (ip), vehicle: saline with Tween-80
[9] = dose: 400.0 mg/kg/injection, schedule: Q04DX003 (ip), vehicle: saline with Tween-80
[10] = dose: 100.0 mg/kg/injection, schedule: Q04DX003 (ip), vehicle: Klucel (hydroxypropylcellulose) (HPC)
[11] = dose: 200.0 mg/kg/injection, schedule: Q04DX003 (ip), vehicle: Klucel (hydroxypropylcellulose) (HPC)
[12] = dose: 100.0 mg/kg/injection, schedule: Q01DX001 (ip), vehicle: carboxymethylcellulose (CMC)
[13] = dose: 200.0 mg/kg/injection, schedule: Q01DX001 (ip), vehicle: carboxymethylcellulose (CMC)
[14] = dose: 400.0 mg/kg/injection, schedule: Q01DX001 (ip), vehicle: carboxymethylcellulose (CMC)
[15] = dose: 100.0 mg/kg/injection, schedule: Q04DX003 (ip), vehicle: saline
[16] = dose: 200.0 mg/kg/injection, schedule: Q04DX003 (ip), vehicle: saline
[17] = dose: 400.0 mg/kg/injection, schedule: Q04DX003 (ip), vehicle: saline
[18] = dose: 100.0 mg/kg/injection, schedule: Q01DX001 (ip), vehicle: saline
[19] = dose: 200.0 mg/kg/injection, schedule: Q01DX001 (ip), vehicle: saline
[20] = dose: 400.0 mg/kg/injection, schedule: Q01DX001 (ip), vehicle: saline
[21] = dose: 50.0 mg/kg/injection, schedule: Q01DX009 (ip), vehicle: saline with Tween-80
[22] = dose: 50.0 mg/kg/injection, schedule: Q01DX001 (ip), vehicle: saline

In the case of `NS(=O)(=O)c1ccc(N/N=c2\c(=O)c(=O)c3ccccc3c2=O)cc1`, the T/C [1] is reported as 101 % of control, the T/C [2] is reported as 95 % of control and the T/C [3] is reported as 90 % of control. For the same compound, the T/C [4] was 108 % of control, the T/C [5] was 93 % of control and the T/C [6] was 90 % of control.

In the case of `COc1ccc(C(=Nc2ccccc2)C(=Nc2ccccc2)c2ccc(OC)cc2)cc1`, the T/C [7] is reported as 88 % of control, the T/C [8] is reported as 89 % of control and the T/C [9] is reported as 91 % of control.

For `Cc1ccc(S(=O)(=O)CCCl)cc1`, the T/C [10] was 96 % of control and the T/C [11] was 100 % of control.

With `O=c1cc(-c2c(O)cc(O)cc2O)oc2cc(O)cc(O)c12` the T/C [12] was 94 % of control, the T/C [13] was 94 % of control and the T/C [14] was 92 % of control.

For `O=C(O)CCSCc1cc(=O)[nH]c(=O)[nH]1`, the T/C [15] was 96 % of control, the T/C [16] was 98 % of control and the T/C [17] was 96 % of control.

For `COc1ccccc1OC(=O)c1ccccc1O`, the T/C [18] was 107 % of control, the T/C [15] was 90 % of control and the T/C [19] was 100 % of control. The T/C [16] was 90 % of control, the T/C [20] was 94 % of control and the T/C [17] was 88 % of control.

`COc1ccc(OC)c(CC(C)=O)c1` was tested, and the T/C [12] was 93 % of control, the T/C [13] was 101 % of control and the T/C [14] was 95 % of control.

In the case of `CCCCCCCCOP(=O)(N1CC1C)N1CC1C` (stereo not drawn), the T/C (dose: 33.0 mg/kg/injection, schedule: Q01DX003 (ip), vehicle: acetone) is reported as 102 % of control, the T/C (dose: 33.0 mg/kg/injection, schedule: Q01DX009 (ip), vehicle: saline with Tween-80) is reported as 114 % of control and the T/C (dose: 33.0 mg/kg/injection, schedule: Q01DX009 (ip), vehicle: saline) is reported as 116 % of control. The T/C (dose: 50.0 mg/kg/injection, schedule: Q01DX003 (ip), vehicle: acetone) was 96 % of control, the T/C [21] was 122 % of control and the T/C (dose: 75.0 mg/kg/injection, schedule: Q01DX003 (ip), vehicle: acetone) was 113 % of control. For the same compound, the T/C (dose: 100.0 mg/kg/injection, schedule: Q01DX001 (ip), vehicle: acetone) was 103 % of control and the T/C (dose: 200.0 mg/kg/injection, schedule: Q01DX001 (ip), vehicle: acetone) was 114 % of control.

In the case of `COc1ccc(-n2c(=O)c(N=Nc3ccccc3)c(O)n(-c3ccc(I)cc3)c2=S)cc1`, the T/C [7] is reported as 97 % of control, the T/C [8] is reported as 100 % of control and the T/C [9] is reported as 116 % of control.

With `CC(C)CCS(=O)(=O)O` the T/C [22] was 104 % of control, the T/C [18] was 104 % of control and the T/C [19] was 98 % of control. For the same compound, the T/C [20] was 102 % of control.

For `Clc1nccc2n[nH]nc12`, the T/C [1] was 94 % of control, the T/C [2] was 103 % of control and the T/C [3] was 91 % of control. For the same compound, the T/C [4] was 100 % of control, the T/C [5] was 103 % of control and the T/C [6] was 107 % of control.

`CSc1ccccc1N=Cc1c(N)ccc(C)c1C` was tested, and the T/C (dose: 100.0 mg/kg/injection, schedule: Q01DX001 (ip), vehicle: saline with Tween-80) was 98 % of control, the T/C (dose: 200.0 mg/kg/injection, schedule: Q01DX001 (ip), vehicle: saline with Tween-80) was 95 % of control and the T/C (dose: 400.0 mg/kg/injection, schedule: Q01DX001 (ip), vehicle: saline with Tween-80) was 98 % of control.

`C(=N\N(CCCCN(/N=C/c1ccccc1)c1ccccc1)c1ccccc1)/c1ccccc1` was tested, and the T/C (dose: 12.5 mg/kg/injection, schedule: Q01DX009 (ip), vehicle: gum acacia) was 111 % of control, the T/C (dose: 25.0 mg/kg/injection, schedule: Q01DX009 (ip), vehicle: gum acacia) was 96 % of control and the T/C [22] was 96 % of control. The T/C (dose: 50.0 mg/kg/injection, schedule: Q01DX009 (ip), vehicle: gum acacia) was 92 % of control, the T/C [18] was 104 % of control and the T/C (dose: 100.0 mg/kg/injection, schedule: Q04DX003 (ip), vehicle: gum acacia) was 94 % of control. For the same compound, the T/C [19] was 91 % of control, the T/C (dose: 200.0 mg/kg/injection, schedule: Q01DX009 (ip), vehicle: gum acacia) was 87 % of control and the T/C (dose: 200.0 mg/kg/injection, schedule: Q04DX003 (ip), vehicle: gum acacia) was 89 % of control. The T/C [20] was 98 % of control, the T/C (dose: 400.0 mg/kg/injection, schedule: Q01DX009 (ip), vehicle: gum acacia) was 86 % of control and the T/C (dose: 400.0 mg/kg/injection, schedule: Q04DX003 (ip), vehicle: gum acacia) was 91 % of control.

`Nc1ccnc(Br)c1` was tested, and the T/C (dose: 100.0 mg/kg/injection, schedule: Q01DX009 (ip), vehicle: saline) was 103 % of control, the T/C [15] was 109 % of control and the T/C (dose: 200.0 mg/kg/injection, schedule: Q01DX009 (ip), vehicle: saline) was 100 % of control. For the same compound, the T/C [16] was 107 % of control, the T/C (dose: 400.0 mg/kg/injection, schedule: Q01DX009 (ip), vehicle: saline) was 101 % of control and the T/C [17] was 112 % of control.

In the case of `COc1ccccc1OS(=O)(=O)c1ccc(COc2ccc([N+](=O)[O-])cc2Cl)cc1`, the T/C (dose: 100.0 mg/kg/injection, schedule: Q01DX001 (ip), vehicle: Klucel (hydroxypropylcellulose) (HPC)) is reported as 93 % of control, the T/C (dose: 200.0 mg/kg/injection, schedule: Q01DX001 (ip), vehicle: Klucel (hydroxypropylcellulose) (HPC)) is reported as 98 % of control and the T/C (dose: 400.0 mg/kg/injection, schedule: Q01DX001 (ip), vehicle: Klucel (hydroxypropylcellulose) (HPC)) is reported as 96 % of control.

With `Cc1cc(S(=O)(=O)F)ccc1O` the T/C (dose: 100.0 mg/kg/injection, schedule: Q01DX009 (ip), vehicle: Klucel (hydroxypropylcellulose) (HPC)) was 106 % of control, the T/C (dose: 200.0 mg/kg/injection, schedule: Q01DX009 (ip), vehicle: Klucel (hydroxypropylcellulose) (HPC)) was 103 % of control and the T/C (dose: 400.0 mg/kg/injection, schedule: Q01DX009 (ip), vehicle: Klucel (hydroxypropylcellulose) (HPC)) was 98 % of control.

`O=C(CNC(=O)Nc1cccc(Cl)c1Cl)N/N=C/c1cccc([N+](=O)[O-])c1` was tested, and the T/C [21] was 90 % of control, the T/C (dose: 100.0 mg/kg/injection, schedule: Q01DX009 (ip), vehicle: saline with Tween-80) was 96 % of control and the T/C (dose: 200.0 mg/kg/injection, schedule: Q01DX009 (ip), vehicle: saline with Tween-80) was 90 % of control.

For `Cc1nc(N)ncc1CCC1OCCO1`, the T/C (dose: 25.0 mg/kg/injection, schedule: Q04DX002 (ip), vehicle: saline) was 91 % of control, the T/C (dose: 50.0 mg/kg/injection, schedule: Q04DX002 (ip), vehicle: saline) was 100 % of control and the T/C (dose: 100.0 mg/kg/injection, schedule: Q04DX002 (ip), vehicle: Klucel (hydroxypropylcellulose) (HPC)) was 175 % of control. The T/C (dose: 100.0 mg/kg/injection, schedule: Q04DX002 (ip), vehicle: saline) was 107 % of control and the T/C (dose: 200.0 mg/kg/injection, schedule: Q04DX002 (ip), vehicle: saline) was 103 % of control.

`Cc1ccc(NCc2ccc(N(C)C)cc2)cc1` was tested, and the T/C [10] was 99 % of control, the T/C [11] was 91 % of control and the T/C (dose: 400.0 mg/kg/injection, schedule: Q04DX003 (ip), vehicle: Klucel (hydroxypropylcellulose) (HPC)) was 93 % of control.

With `c1ccc2c(C(CCN3CCCCC3)CNC3=NCCN3)cccc2c1` (stereo not drawn) the T/C (dose: 5.0 mg/kg/injection, schedule: Q04DX003 (ip), vehicle: saline with Tween-80) was 96 % of control, the T/C (dose: 10.0 mg/kg/injection, schedule: Q04DX003 (ip), vehicle: saline with Tween-80) was 105 % of control and the T/C (dose: 20.0 mg/kg/injection, schedule: Q04DX003 (ip), vehicle: saline with Tween-80) was 98 % of control.
